Experimental data: the NIST ThermoML archive (doi:10.1021/acs.jced.8b00785)
± gives the expanded uncertainty stated by the source.

How the values were obtained:
[1] = Molar enthalpy of transition or fusion; conditions: Crystal; DSC
[2] = Crystal; DSC

For `NNC(=O)c1ccncc1` [isonicotinic acid hydrazide], the “Molar enthalpy of transition or fusion” value [1] was 6.72 ± 0.359 kcal/mol and the Triple point temperature [2] was 446.04 ± 0.87 K.
